According to the NIST ThermoML archive (doi:10.1021/je100145f):

Experiment: molar heat capacity at constant pressure; xn = mol fraction of the nth substance listed
Conditions: 101 kPa, Liquid, Small sample (50 mg) DSC

N#Cc1ccccc1 [benzonitrile] + CCCCCCCCC
molar heat capacity at constant pressure [J/K/mol]
Conditions	285.15 K	288.15 K	293.15 K	298.15 K	303.15 K	308.15 K	313.15 K
x1 = 0.0239	275.6	276.8	278.87	280.98	283.18	285.48	287.76
x1 = 0.0499	272.83	274.01	276.02	278.11	280.26	282.5	284.75
x1 = 0.0989	267.94	269.06	270.98	272.97	275.01	277.16	279.34
x1 = 0.1984	258.53	259.47	261.13	262.87	264.72	266.66	268.65
x1 = 0.2543	253.53	254.27	255.7	257.26	258.97	260.77	262.65
x1 = 0.3	249.7	250.12	251.28	252.66	254.22	255.89	257.63
x1 = 0.4004	242.4	241.04	241.24	242.16	243.44	244.94	246.59
x1 = 0.4968	234.22	230.79	230.43	231.16	232.33	233.66	235.16
x1 = 0.6	217.32	216.76	217.29	218.27	219.53	220.89	222.37
x1 = 0.6996	202.24	202.88	204.1	205.37	206.74	208.21	209.67
x1 = 0.8	189.2	189.97	191.28	192.63	194	195.39	196.84
x1 = 0.9	176.74	177.48	178.75	180.02	181.35	182.67	184.01
x1 = 0.9498	170.45	171.18	172.4	173.65	174.93	176.22	177.48
x1 = 0.9805	166.46	167.19	168.41	169.64	170.89	172.18	173.44
x1 = 1	163.9	164.63	165.82	167.06	168.32	169.59	170.87

N#Cc1ccccc1 [benzonitrile] + CCCCCCCC
molar heat capacity at constant pressure [J/K/mol]
Conditions	283.15 K	288.15 K	293.15 K	298.15 K	303.15 K	308.15 K	313.15 K	318.15 K
x1 = 0.0219	246.32	248.19	250.11	252.1	254.14	256.24	258.38	260.56
x1 = 0.0576	243.69	245.52	247.38	249.32	251.3	253.34	255.43	257.56
x1 = 0.1021	240.66	242.38	244.17	246	247.92	249.87	251.88	253.94
x1 = 0.1999	234.51	235.9	237.41	239.04	240.74	242.5	244.34	246.23
x1 = 0.2998	229.04	229.53	230.52	231.82	233.28	234.82	236.47	238.12
x1 = 0.4002	224.38	222.59	223.06	224.03	225.26	226.66	228.12	229.73
x1 = 0.4637	219.83	217.33	217.69	218.58	219.78	221.13	222.51	–
x1 = 0.5001	215.93	213.9	214.32	215.28	216.5	217.77	219.26	220.74
x1 = 0.6001	203.15	203.61	204.57	205.76	207.09	208.41	209.85	211.38
x1 = 0.7003	192.17	193.38	194.65	195.97	197.33	198.73	200.16	201.61
x1 = 0.7999	182.68	183.92	185.2	186.53	187.88	189.25	190.63	192.02
x1 = 0.9	173.26	174.47	175.71	176.98	178.27	179.58	180.92	182.23
x1 = 0.95	168.41	169.62	170.83	172.09	173.36	174.65	175.96	177.25
x1 = 0.9801	165.44	166.62	167.83	169.07	170.34	171.61	172.89	174.17
x1 = 1	163.43	164.61	165.82	167.06	168.32	169.59	170.87	172.15
